Measurements: patent US20170081324A1 (priority 2015, published 2017)
Like-named read-outs stand apart in the source and are kept apart here.

Legend:
[1] = target: whole RNP complex (viral RNPs) of IAV strain A/PR/8/34 (Influenza A virus, UniProt P03428); experiment: biochemical
[2] = tested on: influenza A virus (IAV) A/Aichi/2/68 (H3N2) on MDCK cells; experiment: microbe, parasite or virus in culture; assay type: cell-based, influenza A virus A/Aichi/2/68 (H3N2); settings: 48 h

Sequence of whole RNP complex (viral RNPs) of IAV strain A/PR/8/34 (P03428 whole entry, looked up, one chain of several): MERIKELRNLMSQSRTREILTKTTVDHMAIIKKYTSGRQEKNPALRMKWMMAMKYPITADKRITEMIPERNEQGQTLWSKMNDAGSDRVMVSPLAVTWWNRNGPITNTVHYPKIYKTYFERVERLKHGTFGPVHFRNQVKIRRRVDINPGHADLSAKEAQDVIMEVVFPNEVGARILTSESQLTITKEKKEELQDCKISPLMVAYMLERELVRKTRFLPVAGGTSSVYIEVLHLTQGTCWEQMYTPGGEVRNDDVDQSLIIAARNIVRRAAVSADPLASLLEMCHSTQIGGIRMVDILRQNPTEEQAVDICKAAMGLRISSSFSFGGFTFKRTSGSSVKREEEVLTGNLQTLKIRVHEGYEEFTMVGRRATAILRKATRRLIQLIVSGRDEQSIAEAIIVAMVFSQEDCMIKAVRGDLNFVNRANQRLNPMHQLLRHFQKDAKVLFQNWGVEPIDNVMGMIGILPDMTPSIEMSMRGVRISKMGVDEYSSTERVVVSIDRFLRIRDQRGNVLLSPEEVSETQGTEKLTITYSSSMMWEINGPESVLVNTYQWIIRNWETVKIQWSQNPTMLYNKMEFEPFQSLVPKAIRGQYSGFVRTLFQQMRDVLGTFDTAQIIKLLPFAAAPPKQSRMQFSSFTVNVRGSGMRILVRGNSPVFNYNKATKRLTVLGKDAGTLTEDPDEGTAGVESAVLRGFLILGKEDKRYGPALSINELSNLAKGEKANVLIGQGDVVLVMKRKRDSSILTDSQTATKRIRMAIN

`CC(C)[C@H](Nc1nc(-c2ccc3n[nH]c(=O)n3c2)ncc1F)C(=O)O` gave an IC50 [1] greater than 33.3 µM and an IC50 ([2]; read-out: CPE) greater than 50 µM.
In the case of `O=C(N[C@@H]1CCC[C@H](Nc2nc(-c3ccc4n[nH]c(=O)n4c3)ncc2F)C1)N1CCCC1`, the IC50 ([2]; read-out: CPE IC50) is reported as 9.1 µM.
Compound `O=C(O)[C@@H]1CCC[C@H](Nc2nc(-c3ccc4n[nH]c(=O)n4c3)ncc2F)C1` has an IC50 [1] of 14.3 µM and an IC50 ([2]; read-out: CPE) greater than 50 µM.
`O=C(N[C@@H]1CCC[C@H](Nc2nc(-c3cccc4n[nH]c(=O)n34)ncc2F)C1)N1CCCC1` [reference compound] was tested, and the IC50 ([2]; read-out: CPE) was greater than 50 µM.
Work on `COC(=O)CC(Nc1nc(-c2ccc3n[nH]c(=O)n3c2)ncc1F)C1CC1` (centres unmarked) yielded an IC50 ([2]; read-out: CPE) greater than 50 µM.
Work on `O=c1[nH]nc2ccc(-c3ncc(F)c(NCC4CC4)n3)cn12` yielded an IC50 [1] greater than 33.3 µM and an IC50 ([2]; read-out: CPE) greater than 50 µM.
Compound `O=C(O)CCCCCNc1nc(-c2ccc3n[nH]c(=O)n3c2)ncc1F` has an IC50 [1] of 149 µM and an IC50 ([2]; read-out: CPE IC50) greater than 100 µM.
Compound `O=c1[nH]nc2ccc(-c3ncc(F)c(NC4CCCCC4)n3)cn12` has an IC50 ([2]; read-out: CPE) greater than 50 µM.
`O=C(O)CC(Nc1nc(-c2ccc3n[nH]c(=O)n3c2)ncc1F)C1CC1` (centres unmarked) gave an IC50 [1] greater than 25 µM and an IC50 ([2]; read-out: CPE) greater than 50 µM.
Compound `CC(C)[C@@H](CC(=O)O)Nc1nc(-c2ccc3n[nH]c(=O)n3c2)ncc1F` has an IC50 [1] greater than 33.3 µM and an IC50 ([2]; read-out: CPE) greater than 50 µM.
Compound `CNc1nc(-c2ccc3n[nH]c(=O)n3c2)ncc1F` has an IC50 [1] greater than 33.3 µM and an IC50 ([2]; read-out: CPE) greater than 50 µM.
For `CC(C)C(C)Nc1nc(-c2ccc3n[nH]c(=O)n3c2)ncc1F` (centres unmarked), the IC50 [1] was 73.2 µM and the IC50 ([2]; read-out: CPE) was greater than 50 µM.
Work on `COC(=O)C[C@@H](Nc1nc(-c2ccc3n[nH]c(=O)n3c2)ncc1F)C(C)C` yielded an IC50 ([2]; read-out: CPE) greater than 50 µM.
In the case of `O=c1[nH]nc2ccc(-c3ncc(F)c(NCCO)n3)cn12`, the IC50 ([2]; read-out: CPE) is reported as greater than 50 µM.
`CC(C)Nc1nc(-c2ccc3n[nH]c(=O)n3c2)ncc1F` gave an IC50 [1] of 44.9 µM and an IC50 ([2]; read-out: CPE) greater than 50 µM.
Compound `COC(=O)[C@@H]1CCC[C@H](Nc2nc(-c3ccc4n[nH]c(=O)n4c3)ncc2F)C1` has an IC50 [1] greater than 33.3 µM and an IC50 ([2]; read-out: CPE) greater than 50 µM.
With `COC(=O)CCCCCNc1nc(-c2ccc3n[nH]c(=O)n3c2)ncc1F` the IC50 [1] was greater than 33.3 µM and the IC50 ([2]; read-out: CPE IC50) was 39.3 µM.
`COC(=O)[C@@H](Nc1nc(-c2ccc3n[nH]c(=O)n3c2)ncc1F)C(C)C` was tested, and the IC50 ([2]; read-out: CPE IC50) was 38.5 µM.
